We go through 38 molecules from ChEMBL document CHEMBL1151855, “Synthesis of novel 1-alkyl-8-substituted-3-(3-methoxypropyl) xanthines as putative A(2B) receptor antagonists” (Bioorg Med Chem, 2009).

Test [1] has as its target T1, Adenosine receptor A2a (Homo sapiens, UniProt P29274). Kind of test: Binding affinity to human adenosine A2a receptor expressed in human HeLa cells. In kind it is cell-based.
Another test concerns the target T2, Adenosine receptor A2b (Homo sapiens, UniProt P29275).
T2 sequence (P29275 whole entry): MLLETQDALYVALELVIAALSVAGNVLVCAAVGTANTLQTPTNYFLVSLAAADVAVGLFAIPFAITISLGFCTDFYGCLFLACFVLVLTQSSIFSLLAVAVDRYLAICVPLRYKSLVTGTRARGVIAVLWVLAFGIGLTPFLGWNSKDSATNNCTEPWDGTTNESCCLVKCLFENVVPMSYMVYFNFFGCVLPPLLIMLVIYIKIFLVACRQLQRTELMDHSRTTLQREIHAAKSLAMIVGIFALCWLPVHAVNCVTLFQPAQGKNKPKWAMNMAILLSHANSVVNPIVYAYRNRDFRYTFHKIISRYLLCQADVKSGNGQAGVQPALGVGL
Kind of test: Binding affinity to human adenosine A2b receptor expressed in HEK293 cells. In kind it is cell-based.

For test [2], the target named is T1, Adenosine receptor A2a. Kind of test: Displacement of [3H]ZM241385 from human adenosine A2a receptor expressed in human HeLa cells at 1 uM. Format: cell-based.
Test [3] concerns the target T3, Adenosine receptor A2b (Homo sapiens) (UniProt P29275).
T3 sequence (whole entry): T2 sequence (P29275 whole entry)
Kind of test: Displacement of [3H]DPCPX from human adenosine A2b receptor expressed in HEK293 cells at 1 uM. Format: cell-based. For orientation: In a radioligand displacement assay an active substance lowers the binding of a labelled ligand.

Another test concerns the target T4, Adenosine receptor A1 (Rattus norvegicus, UniProt P25099).
T4 sequence (P25099 whole entry): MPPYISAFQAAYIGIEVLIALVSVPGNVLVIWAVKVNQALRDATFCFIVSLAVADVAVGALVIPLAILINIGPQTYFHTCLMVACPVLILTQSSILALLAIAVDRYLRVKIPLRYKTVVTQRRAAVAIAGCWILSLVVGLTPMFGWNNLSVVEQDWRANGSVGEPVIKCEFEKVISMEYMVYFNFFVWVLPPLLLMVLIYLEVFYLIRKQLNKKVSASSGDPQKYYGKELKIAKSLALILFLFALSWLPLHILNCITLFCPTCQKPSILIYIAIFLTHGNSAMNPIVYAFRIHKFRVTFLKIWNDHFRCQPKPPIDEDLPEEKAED
Kind of test: Binding affinity to rat cortex adenosine A1 receptor.

The target in a further test is T5, Adenosine receptor A3 (Homo sapiens, UniProt P0DMS8).
T5 sequence (P0DMS8 whole entry): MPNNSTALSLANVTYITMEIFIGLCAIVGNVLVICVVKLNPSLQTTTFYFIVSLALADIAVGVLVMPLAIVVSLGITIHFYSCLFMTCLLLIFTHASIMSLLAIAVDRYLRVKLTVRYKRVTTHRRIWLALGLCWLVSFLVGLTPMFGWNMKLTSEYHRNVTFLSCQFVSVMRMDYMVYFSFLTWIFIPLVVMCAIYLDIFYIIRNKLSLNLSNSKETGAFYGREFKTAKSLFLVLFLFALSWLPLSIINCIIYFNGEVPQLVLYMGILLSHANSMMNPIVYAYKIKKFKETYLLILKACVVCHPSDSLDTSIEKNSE
Kind of test: Binding affinity to human adenosine A3 receptor expressed in human HeLa cells. Format: cell-based.

Test [4] addresses T6, Adenosine receptor A1 (Rattus norvegicus) (UniProt P25099).
T6 sequence (whole entry): T4 sequence (P25099 whole entry)
Kind of test: Displacement of [3H]DPCPX from rat cortex adenosine A1 receptor at 1 uM.

Test [5] deals with T7, Adenosine receptor A3 (Homo sapiens) (UniProt P0DMS8).
T7 sequence (whole entry): T5 sequence (P0DMS8 whole entry)
Kind of test: Displacement of [3H]NECA from human adenosine A3 receptor expressed in human HeLa cells at 1 uM. In kind it is cell-based.

T1 sequence (P29274 whole entry): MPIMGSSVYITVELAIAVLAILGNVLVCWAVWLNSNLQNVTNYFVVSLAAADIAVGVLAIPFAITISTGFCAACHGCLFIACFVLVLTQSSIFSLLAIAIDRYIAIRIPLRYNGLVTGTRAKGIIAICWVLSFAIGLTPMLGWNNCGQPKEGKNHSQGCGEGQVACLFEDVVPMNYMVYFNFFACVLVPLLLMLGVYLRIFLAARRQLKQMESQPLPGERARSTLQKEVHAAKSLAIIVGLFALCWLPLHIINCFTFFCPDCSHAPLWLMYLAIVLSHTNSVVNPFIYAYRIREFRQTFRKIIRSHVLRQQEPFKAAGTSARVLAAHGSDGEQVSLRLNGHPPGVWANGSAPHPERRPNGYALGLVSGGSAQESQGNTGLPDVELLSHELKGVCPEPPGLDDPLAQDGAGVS

As a reminder, the Ki is a measure of affinity in units of concentration, obtained from inhibition or displacement. In the case of `CCn1c(=O)c2[nH]c(-c3ccc(OCC(=O)Nc4nc5ccccc5[nH]4)cc3)nc2n(CCCOC)c1=O`, the Ki on Adenosine receptor A2a [1] was 0.204 µM; on Adenosine receptor A2b, 0.0933 µM.

As to `CCCn1c(=O)c2[nH]c(-c3cccs3)nc2n(CCCOC)c1=O`, the Activity turned out to be 25% on Adenosine receptor A2a [2] and 77% in test [3].

Turning to `CCn1c(=O)c2[nH]c(-c3ccc(OCC(=O)Nc4cccnc4)cc3)nc2n(CCCOC)c1=O`, the Ki on Adenosine receptor A1 is 0.162 µM; on Adenosine receptor A3, 0.0955 µM; on Adenosine receptor A2a [1], 0.759 µM; on Adenosine receptor A2b, 0.0339 µM.

With `CCn1c(=O)c2[nH]c(-c3ccc(-c4ccccc4)cc3)nc2n(CCCOC)c1=O`, the Ki is 0.525 µM at Adenosine receptor A2a [1] and 0.0708 µM on Adenosine receptor A2b.

For the molecule `CCCn1c(=O)c2[nH]c(C3CCCC3)nc2n(CCCOC)c1=O`, the Activity on Adenosine receptor A2a [2] is 84%; in test [3], 62%.

Consider `CCn1c(=O)c2[nH]c(-c3ccc(OCC(=O)Nc4ccc(N(C)C)cc4)cc3)nc2n(CCCOC)c1=O`, for which the Ki on Adenosine receptor A1 was 0.871 µM; on Adenosine receptor A3, 0.209 µM; on Adenosine receptor A2a [1] it was 1.78 µM; at Adenosine receptor A2b, 0.174 µM.

For the molecule `CCn1c(=O)c2[nH]c(-c3ccc(OCC(=O)Nc4ccc(C(C)=O)cc4)cc3)nc2n(CCCOC)c1=O`, the figures for the Ki at Adenosine receptor A3, on Adenosine receptor A2a [1] and on Adenosine receptor A2b were 0.708 µM, 0.148 µM and 0.0117 µM, respectively. For the same molecule, in test [4], the Activity was 68%.

Take `CCn1c(=O)c2[nH]c(-c3ccc(OCC(=O)Nc4ccc(F)cc4)cc3)nc2n(CCCOC)c1=O`: the Ki was 0.0209 µM on Adenosine receptor A1, 0.955 µM at Adenosine receptor A3, 0.0562 µM at Adenosine receptor A2a [1] and 0.00302 µM on Adenosine receptor A2b.

As for `CCn1c(=O)c2[nH]c(-c3ccc[nH]3)nc2n(CCCOC)c1=O`, the Ki on Adenosine receptor A2a [1] is 0.209 µM; at Adenosine receptor A2b, 0.0851 µM.

Consider `CCOCCn1c(=O)c2[nH]c(-c3ccccc3)nc2n(CCCOC)c1=O`, for which the Activity on Adenosine receptor A2a [2] stood at 51%; in test [3], 21%.

With `CCn1c(=O)c2[nH]c(-c3cccs3)nc2n(CCCOC)c1=O`, the inhibition constant (Ki) was 0.219 µM at Adenosine receptor A2a [1] and 0.126 µM at Adenosine receptor A2b.

Turning to `CCn1c(=O)c2[nH]c(-c3ccco3)nc2n(CCCOC)c1=O`, the Ki on Adenosine receptor A2a [1] was 0.49 µM; on Adenosine receptor A2b, 0.138 µM.

For the molecule `CCn1c(=O)c2c(nc(-c3ccco3)n2C)n(CCCOC)c1=O`, the Activity on Adenosine receptor A2a [2] is 14%; in test [3] it was 1%.

For the molecule `CCCn1c(=O)c2[nH]c(-c3ccccc3)nc2n(CCCOC)c1=O`, the inhibition constant (Ki) was 0.339 µM at Adenosine receptor A2a [1] and 0.324 µM on Adenosine receptor A2b.

For `CC[S+]([O-])CCn1c(=O)c2[nH]c(-c3ccccc3)nc2n(CCCOC)c1=O` (configuration not stated), the Activity on Adenosine receptor A2a [2] came to 18%; in test [3], 11%.

Turning to `COCCCn1c(=O)n(CC(C)C)c(=O)c2[nH]c(-c3ccccc3)nc21`, the figures for the Activity (at Adenosine receptor A2a [2]; in test [3]) were 25% and 30%, respectively.

Turning to `CCn1c(=O)c2[nH]c(-c3ccc(OCC(=O)Nc4ccc(Br)cc4)cc3)nc2n(CCCOC)c1=O`, the Ki at Adenosine receptor A1 is 0.1 µM; on Adenosine receptor A3 it was 1.29 µM; on Adenosine receptor A2a [1], 0.0977 µM; at Adenosine receptor A2b it was 0.00288 µM.

For the molecule `CCS(=O)(=O)CCn1c(=O)c2[nH]c(Cc3ccco3)nc2n(CCCOC)c1=O`, the figures for the Activity (on Adenosine receptor A2a [2]; in test [3]) were 6% and 15%, respectively.

Consider `CCn1c(=O)c2[nH]c(-c3ccccc3)nc2n(CCCOC)c1=O`, for which the Activity on Adenosine receptor A2a [2] came out at 49%; in test [3], 67%.

In the case of `CCn1c(=O)c2[nH]c(-c3ccc(OCC(=O)N4CCc5ccccc5C4)cc3)nc2n(CCCOC)c1=O`, the Ki at Adenosine receptor A1 is 0.1 µM; at Adenosine receptor A2a [1], 0.229 µM; at Adenosine receptor A2b, 0.049 µM.

In turn, `CCSCCn1c(=O)c2[nH]c(Cc3ccco3)nc2n(CCCOC)c1=O` had an Activity on Adenosine receptor A2a [2] of 1%. For the same molecule, the Ki at Adenosine receptor A2b was 2 µM.

As to `CCn1c(=O)c2[nH]c(-c3ccc(OCC(=O)Nc4ccc(O)cc4)cc3)nc2n(CCCOC)c1=O`, the Ki on Adenosine receptor A1 was 0.174 µM; at Adenosine receptor A2a [1] it was 0.417 µM; at Adenosine receptor A2b it was 0.0155 µM. Further, the Activity in test [5] was 65%.

As to `CCSCCn1c(=O)c2[nH]c(-c3ccccc3)nc2n(CCCOC)c1=O`, the Activity on Adenosine receptor A2a [2] was determined as 8%; in test [3], 41%.

Take `CCCn1c(=O)c2[nH]c(-c3ccc[nH]3)nc2n(CCCOC)c1=O`: the figures for the inhibitory constant (Ki) on Adenosine receptor A2a [1] and on Adenosine receptor A2b were 0.398 µM and 0.148 µM, respectively.

Take `CCn1c(=O)c2c(nc(-c3ccc(-c4ccccc4)cc3)n2C)n(CCCOC)c1=O`: the Activity on Adenosine receptor A2a [2] was 5%; in test [3], 6%.

Take `COCCCn1c(=O)n(CCOC)c(=O)c2[nH]c(-c3ccccc3)nc21`: the values for the Activity (on Adenosine receptor A2a [2]; in test [3]) were 54% and 70%, respectively.

`CCn1c(=O)c2[nH]c(Cc3ccco3)nc2n(CCCOC)c1=O`: the Activity came to 11% at Adenosine receptor A2a [2] and 17% in test [3].

`CCn1c(=O)c2[nH]c(-c3ccc(OCC(=O)NC4CCCC4)cc3)nc2n(CCCOC)c1=O`: the inhibition constant Ki is 0.0955 µM at Adenosine receptor A2a [1] and 0.0776 µM on Adenosine receptor A2b.

Turning to `CCn1c(=O)c2[nH]c(-c3ccc(OCC(=O)Nc4ccccc4)cc3)nc2n(CCCOC)c1=O`, the Ki was 0.0363 µM at Adenosine receptor A1, 2.51 µM at Adenosine receptor A3, 0.0871 µM at Adenosine receptor A2a [1] and 0.00302 µM on Adenosine receptor A2b.

For `CCS(=O)(=O)CCn1c(=O)c2[nH]c(-c3ccccc3)nc2n(CCCOC)c1=O`, the figures for the Activity (on Adenosine receptor A2a [2]; in test [3]) were 20% and 0%, respectively.

Turning to `CCCn1c(=O)c2[nH]c(CCCc3ccccc3)nc2n(CCCOC)c1=O`, the Activity worked out at 26% at Adenosine receptor A2a [2] and 70% in test [3].

Consider `CCSCCn1c(=O)c2[nH]c(-c3ccco3)nc2n(CCCOC)c1=O`, for which the Ki is 5.01 µM on Adenosine receptor A2a [1] and 0.49 µM on Adenosine receptor A2b.

On to `CCn1c(=O)c2[nH]c(-c3ccc(OCC(=O)Nc4ccon4)cc3)nc2n(CCCOC)c1=O`, for which the Ki on Adenosine receptor A1 was 0.0955 µM; on Adenosine receptor A3 it was 0.933 µM; on Adenosine receptor A2a [1] it was 0.214 µM; at Adenosine receptor A2b, 0.0209 µM.

Consider `CC[S+]([O-])CCn1c(=O)c2[nH]c(Cc3ccco3)nc2n(CCCOC)c1=O` (configuration not stated), for which the Activity was determined as 12% at Adenosine receptor A2a [2] and 0% in test [3].

On to `CCn1c(=O)c2[nH]c(-c3ccc(OCC(=O)Nc4ccccn4)cc3)nc2n(CCCOC)c1=O`, for which the Ki at Adenosine receptor A2a [1] was 0.17 µM; on Adenosine receptor A2b, 0.0155 µM. Also, the Activity in test [5] was 69%; in test [4] it was 2%.

Regarding `CCCn1c(=O)c2[nH]c(-c3ccc(-c4ccccc4)cc3)nc2n(CCCOC)c1=O`, the Activity at Adenosine receptor A2a [2] turned out to be 14%; in test [3], 66%.

`CCCCCn1c(=O)c2[nH]c(-c3ccccc3)nc2n(CCCOC)c1=O`: the Activity at Adenosine receptor A2a [2] was 0%; in test [3], 49%.

For the molecule `CCn1c(=O)c2[nH]c(-c3ccc(OCC(=O)Nc4ccc(C#N)cc4)cc3)nc2n(CCCOC)c1=O`, the inhibition constant Ki at Adenosine receptor A1 was 0.676 µM; on Adenosine receptor A3, 0.398 µM; at Adenosine receptor A2a [1], 0.112 µM; on Adenosine receptor A2b, 0.00912 µM.
